Source: patent US20040002477A1, “Erectile dysfunction remedies containing prostaglandin derivatives as the active ingredient” (priority 2000, published 2004)

Assays:
[1] = system: corpus cavernosum; test: Corpus cavernosum relaxation activity in cats (norepinephrine-contracted isolated tissue, Magnus tube); format: cell-based; conditions: cat corpus cavernosum; for Corpus cavernosum relaxation rate: 10 μM norepinephrine contraction = 100%, Means ± SE
Procedure: Under anesthesia with urethane, penis of five cats (hybrid, weight about 3.5 kg) was removed. In the krebs solution, a corpus cavernosum was isorated, quartered and suspended with the tention of 200 mg in the Magnus tube. 10 μM norepinephrine was added and the tissue was constricted. Then the stable contraction was checked. After the addition of norepinephrine, (5Z, 9β, 11α, 13E)-17,17-propano-11,16-dihydroxy-9-chloro-20-norprosta-5,13-dienic acid·lysine salt (compound A) and (5Z, 9β, 11α, 13E)-17,17-propano-11,16-dihydroxy-9-chloroprosta-5,13,19-trienic acid (compound B), which are the compounds of the formula (I), were added respectively and the changes of the contraction were measured. As controls, PGE1 and 19-hydroxy-PGE2 were used. Each compounds were disolved in DMSO and used. The contraction induced by 10 μM norepinephrine was considered as 100% and the percentages of the relaxation rate were calculated.

[2] = system: human corpus cavernosum; test: Corpus cavernosum relaxation activity in human (noradrenalin-contracted isolated tissue, Magnus tube); format: cell-based; conditions: for Corpus cavernosum relaxation rate: 10 μM noradrenalin contraction = 100%, added cumulatively, Means ± SE
Procedure: The samples of the human corpus cavernosum taken at the time of operative treatment in agreement of the patient were suspended with the tention of 500 mg in the Magnus tube fulled by glucose-added Krebs buffer. The 10^−5M (10 μM) noradrenalin-induced contraction reaction, acetylcholine-induced relaxation reaction and electrostimulation(EFS)-induced contraction reaction were checked and the samples responded normaly were used in the experiment. It was reconstricted by 10 μM noradrenalin, the compound A used in the present invention of the formula (I) (n=4), the compound B used in the present invention of the formula (I) (n=5) or PGE1 (n=5), which were disolved by DMSO, were added cumulatively and the relaxation reacton was recorded on the chart. The contraction induced by 10 μM noradrenaline was concidered as 100% and the percentage of the relaxation rate was calculated.

[3] = rat, in vivo, iv
Procedure: It has been confirmed that the compounds used in the present invention of the formula (I) have sufficiently low toxicity and are sufficiently safe for use as pharmaceutical preparations. For example, the maximal tolerated dose of the compound A (lysine salts) in the compound of the formula (I) was 30 mg/kg weight or more for rat intravenous administration.

Molecule | Intensity of relaxation compared with PGE1 [1] | Relaxation of corpus cavernosum, dose dependence [1] | Corpus cavernosum relaxation rate ([1]; dose 0.1 μM) | Corpus cavernosum relaxation rate ([1]; dose 1.0 μM) | Potency relative to PGE1 [2] | Corpus cavernosum relaxation rate ([2]; dose 1.0 μM) | Corpus cavernosum relaxation rate ([2]; dose 10 μM) | Corpus cavernosum relaxation rate ([1]; dose 0.3 μM) | Maximal tolerated dose [3]
C=CCC1(C(O)C/C=C/[C@@H]2[C@@H](C/C=C\CCCC(=O)O)[C@H](Cl)C[C@H]2O)CCC1 (stereo partly drawn) [Compound B, (5Z, 9β, 11α, 13E)-17,17-propano-11,16-dihydroxy-9-chloroprosta-5,13,19-trienic acid] | at the same level as PGE1 | dose-dependent relaxasions | 18.1 ± 4.8% | 36.8 ± 4.2% | 1.6 times | 25.0 ± 4.4% | 45.3 ± 4.5% |  | 
19-hydroxy-PGE2 [reference compound] |  |  |  | 27.2 ± 4.7% |  |  |  | 20.0 ± 4.2% | 
CCC1(C(O)C/C=C/C2C(O)CC(Cl)C2C/C=C\CCCC(=O)O)CCC1.NCCCC[C@H](N)C(=O)O (stereo not drawn) [Compound A, (5Z, 9β, 11α, 13E)-17,17-propano-11,16-dihydroxy-9-chloro-20-norprosta-5,13-dienic acid·lysine salt] | at the same level as PGE1 | dose-dependent relaxasions | 26.8 ± 4.2% | 35.2 ± 2.8% | 1.6 times | 29.9 ± 13.7% | 44.5 ± 12.6% |  | ≥ 30 mg/kg weight
CCCCC[C@H](O)/C=C/[C@H]1[C@H](O)CC(=O)[C@@H]1CCCCCCC(=O)O [PGE1, prostaglandin E1, reference compound] |  |  | 21.3 ± 2.3% | 35.5 ± 5.0% |  | 16.8 ± 7.2% | 27.9 ± 8.8% |  | 
